Assay [1] has as its target T1, Peroxisome proliferator-activated receptor gamma (Homo sapiens, UniProt P37231).
T1 sequence (P37231 whole entry): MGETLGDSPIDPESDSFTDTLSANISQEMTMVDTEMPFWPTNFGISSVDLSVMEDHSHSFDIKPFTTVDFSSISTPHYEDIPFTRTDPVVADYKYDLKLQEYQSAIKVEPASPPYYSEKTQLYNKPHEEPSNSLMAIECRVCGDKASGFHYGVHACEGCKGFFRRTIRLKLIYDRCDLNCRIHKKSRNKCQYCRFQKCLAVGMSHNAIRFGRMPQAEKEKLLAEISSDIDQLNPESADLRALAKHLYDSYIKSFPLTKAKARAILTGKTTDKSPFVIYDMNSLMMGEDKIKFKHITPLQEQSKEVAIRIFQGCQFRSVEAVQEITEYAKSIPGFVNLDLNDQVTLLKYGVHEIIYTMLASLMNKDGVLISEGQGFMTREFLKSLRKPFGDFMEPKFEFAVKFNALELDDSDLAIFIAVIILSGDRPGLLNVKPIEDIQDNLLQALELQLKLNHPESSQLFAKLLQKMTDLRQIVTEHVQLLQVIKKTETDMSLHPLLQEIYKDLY
Nature of the assay: Antagonist activity at human PPARgamma LBD expressed in yeast AH109 cells assessed as reduction in rosiglitazone-stimulated PPARgamma/CBP interaction by measuring alpha galactosidase activity using PNP-alpha-Gal as substrate by alpha-galactosidase based yeast-two hybrid assay. Type of assay: cell-based.

Assay [2] concerns MCF7. The assay can be described thus: Antiproliferative activity against human MCF7 cells assessed as reduction in cell growth incubated for 48 hrs by MTT assay. Type of assay: functional, cell-based. Conditions: MCF7, 48 h. On the technique in general: Tetrazolium assays rely on reduction of a dye to a coloured formazan, in cell work by metabolically active cells.
The test system of assay [3] is MCF7. Nature of the assay: Antiproliferative activity against human MCF7 cells assessed as reduction in cell growth incubated for 72 hrs by MTT assay. Type of assay: functional, cell-based. Conditions: MCF7, 72 h.
A further assay concerns HCT-116. The assay can be described thus: Antiproliferative activity against human HCT116 cells assessed as reduction in cell growth incubated for 72 hrs by MTT assay. Type of assay: functional, cell-based. The note with it: HCT-116, 72 h.
A further assay relates to TERT-RPE1. The assay can be described thus: Cytotoxicity against human RPE1 cells assessed as reduction in cell growth incubated for 72 hrs by MTT assay. The class given is cell-based. Conditions: RPE-1, 72 h.

Regarding `CCOc1cc(/C=C2\S/C(=N/c3ccc(Cl)c(C(=O)O)c3)N(C)C2=O)cc(Cl)c1O`, the IC50 – broadly, the concentration at which inhibition is half-maximal – in assay [1] worked out at 7.97 µM; in the assay with MCF7 [2], 108 µM.

As for `COc1ccc(/C=C2/CN(C)/C(=N/c3ccc(C(F)(F)F)cc3)S2)cc1`, the results for the IC50 with MCF7 [3], in the assay with HCT-116 and with TERT-RPE1 were 24.1 µM, 34.3 µM and 72 µM, respectively.

In the case of `COc1ccc(/C=C2/CN(C)/C(=N/c3ccc(F)cc3)S2)cc1`, the IC50 in the assay with MCF7 [3] is 8 µM; in the assay with HCT-116 it was 10 µM; in the assay on TERT-RPE1, 42.8 µM.

For the molecule `COc1ccc(/C=C2/CN(C)/C(=N/c3ccc(Cl)cc3)S2)cc1`, the IC50 with MCF7 [3] came to 7.6 µM; in the assay on HCT-116, 9.8 µM; in the assay on TERT-RPE1 it was 39.6 µM.

As to `COc1ccc(/C=C2/CN(C)/C(=N/c3ccc(C)cc3)S2)cc1`, the IC50 with MCF7 [3] amounted to 7.6 µM; in the assay with HCT-116, 11.1 µM; in the assay on TERT-RPE1, 65.7 µM.

In the case of `COc1ccc(/C=C2\S/C(=N\c3cc(C(F)(F)F)cc(C(F)(F)F)c3)N(C)C2=O)cc1`, the figures for the IC50 with MCF7 [3], in the assay with HCT-116 and with TERT-RPE1 were 77.8 µM, more than 100 µM and more than 100 µM, respectively.

As to `COc1ccc(/C=C2/CN(C)/C(=N/c3ccc([N+](=O)[O-])cc3)S2)cc1`, the figures for the IC50 in the assay on MCF7 [3], in the assay on HCT-116 and with TERT-RPE1 were 9.8 µM, 10.2 µM and more than 100 µM, respectively.

Regarding `C=CC/N=C1\S/C(=C\c2ccc(OC)cc2)C(=O)N1C`, the IC50 was more than 100 µM with MCF7 [3], 79.3 µM with HCT-116 and more than 100 µM in the assay on TERT-RPE1.

As for `COc1ccc(/C=C2\S/C(=N\c3ccc(Cl)cc3)N(C)C2=O)cc1`, the figures for the IC50 with MCF7 [3], in the assay with HCT-116 and in the assay with TERT-RPE1 were 39.3 µM, 10.4 µM and more than 100 µM, respectively.

Consider `C=C1CN(C)/C(=N/c2ccccc2)S1`, for which the IC50 in the assay with MCF7 [3], in the assay on HCT-116 and in the assay on TERT-RPE1 was more than 100 µM throughout.

`FC(F)(F)c1cc(/N=C2/NC/C(=C/c3ccccc3)S2)cc(C(F)(F)F)c1`: the IC50 was 13.5 µM in the assay on MCF7 [3], 16.1 µM with HCT-116 and 32.8 µM with TERT-RPE1.

For the molecule `COc1ccc(/C=C2\S/C(=N\c3c(C)cccc3C)N(C)C2=O)cc1`, the half-maximal inhibitory concentration (IC50) in the assay on MCF7 [3], in the assay on HCT-116 and with TERT-RPE1 was more than 100 µM throughout.

For the molecule `COc1ccc(/C=C2\S/C(=N\c3ccccc3)N(C)C2=O)cc1`, the IC50 in the assay on MCF7 [3], with HCT-116 and with TERT-RPE1 was more than 100 µM each time.

As to `COc1ccc(/C=C2\S/C(=N\c3ccc(OC)cc3)N(C)C2=O)cc1`, the IC50 with MCF7 [3], with HCT-116 and with TERT-RPE1 was more than 100 µM each time.

In the case of `COc1ccc(/C=C2\S/C(=N\c3ccc(Br)cc3)N(C)C2=O)cc1`, the results for the IC50 in the assay on MCF7 [3], with HCT-116 and with TERT-RPE1 were more than 100 µM, 17 µM and more than 100 µM, respectively.

Take `COc1ccc(/C=C2\S/C(=N\c3ccc(C)c(Cl)c3)N(C)C2=O)cc1`: the IC50 in the assay on MCF7 [3] is more than 100 µM; in the assay on HCT-116, 14.1 µM; in the assay with TERT-RPE1, 23 µM.

For the molecule `COc1ccc(/C=C2\S/C(=N\c3ccc(F)cc3)N(C)C2=O)cc1`, the IC50 with MCF7 [3] is 66.5 µM; in the assay with HCT-116, 13.3 µM; in the assay with TERT-RPE1, more than 100 µM.

Turning to `COc1ccc(/C=C2\S/C(=N\c3ccc(C(C)(C)C)cc3)N(C)C2=O)cc1`, the IC50 in the assay with MCF7 [3] is more than 100 µM; with HCT-116 it was more than 100 µM; in the assay on TERT-RPE1 it was 46.7 µM.

For the molecule `C=CC/N=C1/NCC(=C)S1`, the half-inhibitory concentration (IC50) in the assay on MCF7 [3], in the assay with HCT-116 and in the assay with TERT-RPE1 was more than 100 µM in each case.

For `COc1ccc(/C=C2/CN(C)/C(=N/c3ccc(OC)cc3)S2)cc1`, the IC50 in the assay with MCF7 [3] was found to be 8.7 µM; with HCT-116, 15.9 µM; in the assay with TERT-RPE1, 65.9 µM.

As to `COc1ccc(/C=C2/CN(C)/C(=N/c3ccc(Br)cc3)S2)cc1`, the IC50 is 7.4 µM in the assay with MCF7 [3], 8.9 µM in the assay with HCT-116 and 61.3 µM in the assay on TERT-RPE1.

Take `COc1ccc(/C=C2/CN(C)/C(=N/c3ccc(C(C)(C)C)cc3)S2)cc1`: the IC50 was 28.7 µM in the assay with MCF7 [3], 25.9 µM in the assay with HCT-116 and 23.5 µM in the assay with TERT-RPE1.

As to `C=C1CN/C(=N/c2ccccc2)S1`, the IC50 in the assay with MCF7 [3], in the assay on HCT-116 and in the assay on TERT-RPE1 was more than 100 µM each time.

For `S=C(Nc1ccccc1)N1C/C(=C/c2ccccc2)S/C1=N\c1ccccc1`, the IC50 in the assay on MCF7 [3], in the assay with HCT-116 and in the assay on TERT-RPE1 was more than 100 µM each time.

For the molecule `O=c1[nH]cc(F)c(=O)[nH]1` [FLUOROURACIL], the IC50 in the assay with MCF7 [3] came out at 3.2 µM; in the assay on HCT-116, 20.4 µM.

With `COc1ccc(/C=C2\S/C(=N\c3ccc(C)cc3)N(C)C2=O)cc1`, the IC50 in the assay with MCF7 [3], in the assay with HCT-116 and with TERT-RPE1 was more than 100 µM in each case.

These data come from ChEMBL document CHEMBL4396955, “Novel thiazolidines: Synthesis, antiproliferative properties and 2D-QSAR studies” (Bioorg Med Chem, 2019).
